Source: patent publication US20220142165A1 (priority 2019, published 2022)

Assays:
[1] = system: tomato late blight pathogen (Phylophihora infeslans); assay: whole plant or invertebrate; format: in vivo; conditions: Phytophthora infestans, 96 h, read-out: Control value
[2] = system: grape downy mildew pathogen (Plasmopara viticola); assay: Grape downy mildew control test (Test Example 2); format: in vivo; conditions: Plasmopara viticola, foliar, 168 h; 100 ppm by mass, sprayed on grape leaf disc (variety Chardonnay) before inoculation; blotch area ratio seven days after inoculation, 20° C.
Experimental: 5 parts by mass of the compound according to the present invention, 93.5 parts by mass of dimethylformamide, and 1.5 parts by mass of polyoxyethylene alkylaryl ether were mixed and dissolved to prepare an emulsion (I) containing 5% by mass of an active ingredient.
The control value was calculated according to the following formula.
Control value (%)=100−{blotch area ratio in treated area/blotch area ratio in untreated area}×100
Water was added to the emulsion (I) such that the concentration of the heterocyclic compound became 100 ppm by mass, and then the heterocyclic compound was dissolved therein to obtain a pharmaceutical solution. Then, the pharmaceutical solution was sprayed on a leaf disc of grape (variety “Chardonnay”) placed on agar in a 6-well plate. After air-drying, the leaf disc on which the pharmaceutical solution was sprayed was inoculated with zoosporangia of grape downy mildew pathogen (Plasmopara viticola) in a suspension by spraying the suspension thereon (treated area). As a control, a leaf disc on which no pharmaceutical solution was sprayed was inoculated in the same way as mentioned above (untreated area). The resultant leaf discs were left in a moist chamber at 20° C. Seven days after inoculation, the grape leaf discs were visually observed to measure the blotch area ratio to calculate the control value.

SMILES | melting point | pest or weed control at 125 ppm [1] | pest or weed control at 100 ppm [2]
Cn1cnc2ccc(OC(c3ccccc3)c3nnco3)cc21 (stereo not drawn) [b-3] | 114 to 116 °C | ≥ 75% | –
Fc1ccc(C(Oc2ccc3nnsc3c2)c2nnco2)nc1 (stereo not drawn) [b-10] | 141 to 142 °C | ≥ 75% | ≥ 75%
Clc1ccc(C(Oc2ccc3nnsc3c2)c2nnco2)nc1 (stereo not drawn) [b-12] | 133 to 134 °C | ≥ 75% | ≥ 75%
CO/N=C/c1cc(C(Oc2ccc3ncsc3c2)c2nnco2)ncc1F (stereo not drawn) [b-15] | 136 to 138 °C | ≥ 75% | ≥ 75%
CO/N=C/c1ccnc(C(Oc2ccc3nnsc3c2)c2nnco2)c1 (stereo not drawn) [b-16] | 172 to 173 °C | – | ≥ 75%
CCO/N=C/c1ccnc(C(Oc2ccc3ncsc3c2)c2nnco2)c1 (stereo not drawn) [b-17] | 113 to 114 °C | ≥ 75% | ≥ 75%
FC(F)(F)CO/N=C/c1ccnc(C(Oc2ccc3ncsc3c2)c2nnco2)c1 (stereo not drawn) [b-19] | 128 to 130 °C | – | ≥ 75%
CO/N=C/c1ccnc(C(Oc2ccc3nc(C)sc3c2)c2nnco2)c1 (stereo not drawn) [b-21] | 107 to 109 °C | ≥ 75% | ≥ 75%
CO/N=C/c1ccnc(C(Oc2cc(F)c3ncsc3c2)c2nnco2)c1 (stereo not drawn) [b-22] | 113 to 148 °C | ≥ 75% | ≥ 75%
CO/N=C/c1ccnc(C(Oc2cc(C)c3ncsc3c2)c2nnco2)c1 (stereo not drawn) [b-23] | 146 to 148 °C | ≥ 75% | ≥ 75%
CCCc1cc(OC(c2cc(/C=N/OC)ccn2)c2nnco2)cc2scnc12 (stereo not drawn) [b-24] | 80 to 82 °C | ≥ 75% | ≥ 75%
C#CCO/N=C/c1ccnc(C(Oc2ccc3nc(C)sc3c2)c2nnco2)c1 (stereo not drawn) [b-26] | 118 to 121 °C | ≥ 75% | ≥ 75%
CO/N=C/c1cc(C(Oc2ccc3nc(C)sc3c2)c2nnco2)ncc1F (stereo not drawn) [b-27] | 129 to 131 °C | ≥ 75% | ≥ 75%
CO/N=C/c1cc(C(Oc2ccc3ncsc3c2)c2nnco2)ncc1Br (stereo not drawn) [b-39] | – | ≥ 75% | ≥ 75%
CO/N=C/c1cc(C(Oc2ccc3ncsc3c2)c2nnco2)ncc1C#N (stereo not drawn) [b-40] | 129 to 131 °C | ≥ 75% | ≥ 75%
CO/N=C/c1cc(C(Oc2cc(Br)c3nc(C)sc3c2)c2nnco2)ncc1F (stereo not drawn) [b-42] | 70 to 75 °C | ≥ 75% | ≥ 75%
CO/N=C/c1cc(C(Oc2ccc3nc(Br)sc3c2)c2nnco2)ncc1F (stereo not drawn) [b-43] | 151 to 154 °C | – | ≥ 75%
CCc1cc(OC(c2cc(/C=N/OC)c(F)cn2)c2nnco2)cc2scnc12 (stereo not drawn) [b-44] | 114 to 117 °C | ≥ 75% | ≥ 75%
CO/N=C/c1cc(C(Oc2cc(F)c3ncsc3c2)c2nnco2)ncc1F (stereo not drawn) [b-45] | 137 to 139 °C | ≥ 75% | ≥ 75%
CCc1cc(OC(c2cc(/C=N/OC)c(F)cn2)c2nnco2)cc2sc(C)nc12 (stereo not drawn) [b-46] | 145 to 147 °C | ≥ 75% | ≥ 75%
CO/N=C/c1cc(C(Oc2cc(C)c3nc(C)sc3c2)c2nnco2)ncc1F (stereo not drawn) [b-47] | 151 to 154 °C | ≥ 75% | ≥ 75%
C=Cc1cc(OC(c2cc(/C=N/OC)c(F)cn2)c2nnco2)cc2sc(C)nc12 (stereo not drawn) [b-48] | 116 to 119 °C | ≥ 75% | ≥ 75%
Cc1nc2ccc(OC(c3cc(/C=N/OCC4CC4)c(F)cn3)c3nnco3)cc2s1 (stereo not drawn) [b-49] | – | ≥ 75% | ≥ 75%
Fc1cnc(C(Oc2ccc3ncsc3c2)c2nnco2)cc1/C=N/OCC1CC1 (stereo not drawn) [b-50] | 129 to 131 °C | ≥ 75% | ≥ 75%

SMILES | melting point | pest or weed control at 125 ppm [1] | pest or weed control at 100 ppm [2]
c1ccc(-c2ccnc(C(Oc3ccc4nnsc4c3)c3nnco3)c2)cc1 (stereo not drawn) [b-51] | – | ≥ 75% | ≥ 75%
CCc1cc(OC(c2cc(/C=N/OC)c(Br)cn2)c2nnco2)cc2sc(C)nc12 (stereo not drawn) [b-52] | 160 to 161 °C | – | ≥ 75%
CO/N=C/c1cc(C(Oc2ccc3nc(I)sc3c2)c2nnco2)ncc1F (stereo not drawn) [b-53] | 166 to 168 °C | – | ≥ 75%
CO/N=C/c1cc(C(Oc2ccc3nc(OC)sc3c2)c2nnco2)ncc1F (stereo not drawn) [b-54] | 134 to 136 °C | – | ≥ 75%
CO/N=C/c1cc(C(Oc2cc(Cl)c3ncsc3c2)c2nnco2)ncc1F (stereo not drawn) [b-55] | 153 to 154 °C | ≥ 75% | ≥ 75%
CO/N=C/c1cc(C(Oc2cc(Br)c3ncsc3c2)c2nnco2)ncc1F (stereo not drawn) [b-56] | 170 to 172 °C | ≥ 75% | –
CO/N=C/c1cc(C(Oc2cc3scnc3cc2F)c2nnco2)ncc1F (stereo not drawn) [b-57] | 150 to 151 °C | ≥ 75% | ≥ 75%
CO/N=C/c1cc(C(Oc2ccc3nnsc3c2)c2nnco2)ncc1F (stereo not drawn) [b-58] | 134 to 135 °C | ≥ 75% | ≥ 75%
CO/N=C/c1cc(C(Oc2ccc3ncsc3c2)c2nnco2)ncc1[S+](C)[O-] (stereo not drawn) [b-61] | 85 to 88 °C | – | ≥ 75%
C=Cc1nc2ccc(OC(c3cc(/C=N/OC)c(F)cn3)c3nnco3)cc2s1 (stereo not drawn) [b-63] | 88 to 89 °C | ≥ 75% | ≥ 75%
CO/N=C/c1cc(C(Oc2ccc3nc(CF)sc3c2)c2nnco2)ncc1F (stereo not drawn) [b-66] | 133 to 134 °C | ≥ 75% | ≥ 75%
C(=N\OCC1CC1)/c1ccnc(C(Oc2ccc3ncsc3c2)c2nnco2)c1 (stereo not drawn) [b-68] | – | ≥ 75% | ≥ 75%
CCCO/N=C/c1ccnc(C(Oc2ccc3ncsc3c2)c2nnco2)c1 (stereo not drawn) [b-69] | – | ≥ 75% | ≥ 75%
COCCO/N=C/c1ccnc(C(Oc2ccc3ncsc3c2)c2nnco2)c1 (stereo not drawn) [b-70] | – | ≥ 75% | ≥ 75%
CO/N=C/c1cc(C(Oc2ccc3nc(C)sc3c2)c2nnco2)ncc1F (stereo not drawn) [b-71] | 167 to 168 °C | – | –
CO/N=C/c1cc(C(Oc2ccc3nc(C(F)F)sc3c2)c2nnco2)ncc1F (stereo not drawn) [b-72] | 143 to 144 °C | – | ≥ 75%
CNc1nc2ccc(OC(c3cc(/C=N/OC)c(F)cn3)c3nnco3)cc2s1 (stereo not drawn) [b-74] | 181 to 182 °C | ≥ 75% | ≥ 75%
CO/N=C/c1cc(C(Oc2ccc3nc(C4CC4)sc3c2)c2nnco2)ncc1F (stereo not drawn) [b-76] | 103 to 104 °C | ≥ 75% | ≥ 75%
CO/N=C/c1cc(C(Oc2ccc3ncsc3c2C)c2nnco2)ncc1F (stereo not drawn) [b-77] | 108 to 110 °C | – | ≥ 75%
CO/N=C/c1cc(C(Oc2cc(OC)c3ncsc3c2)c2nnco2)ncc1F (stereo not drawn) [b-84] | 103 to 104 °C | ≥ 75% | ≥ 75%
COCCO/N=C/c1cc(C(Oc2ccc3ncsc3c2)c2nnco2)ncc1F (stereo not drawn) [b-85] | – | ≥ 75% | ≥ 75%
COCCO/N=C/c1cc(C(Oc2ccc3nc(C)sc3c2)c2nnco2)ncc1F (stereo not drawn) [b-86] | – | ≥ 75% | ≥ 75%
CCc1cc(OC(c2cc(/C=N/OCCOC)c(F)cn2)c2nnco2)cc2sc(C)nc12 (stereo not drawn) [b-87] | 138 to 139 °C | ≥ 75% | ≥ 75%
